Data from patent US20150335021A1, “Cycloclavine and Derivatives Thereof for Controlling Invertebrate Pests” (BASF SE, priority 2012, published 2015).

What was measured:
[1] = test system: Cotton Aphid (Aphis gossypi); assay: Cotton aphid spray test on infested cotton plants; assay type: in vivo; conditions: 120 h, after 5 days, in comparison with untreated controls
Text: B.1 Cotton Aphid (Aphis gossypi)
(§1) The active compounds were formulated in cyclohexanone as a 10,000 ppm solution supplied in tubes. The tubes were inserted into an automated electrostatic sprayer equipped with an atomizing nozzle and they served as stock solutions for which lower dilutions were made in 50% acetone: 50% water (v/v). A nonionic surfactant (Kinetic®) was included in the solution at a volume of 0.01% (v/v).
Cotton plants at the cotyledon stage were infested with aphids prior to treatment by placing a heavily infested leaf from the main aphid colony on top of each cotyledon. Aphids were allowed to transfer overnight to accomplish an infestation of 80-100 aphids per plant and the host leaf was removed. The infested plants were then sprayed by an automated electrostatic plant sprayer equipped with an atomizing spray nozzle. The plants were dried in the sprayer fume hood, removed from the sprayer, and then maintained in a growth room under fluorescent lighting in a 24-hr photoperiod at 25° C. and 20-40% relative humidity. Aphid mortality on the treated plants, relative to mortality on untreated control plants, was determined after 5 days.

[2] = test system: Rice Green Leafhopper (Nephotettix virescens); assay: Rice green leafhopper test on sprayed rice seedlings; assay type: in vivo; conditions: spray, after 72 hours, in comparison with untreated controls
Protocol: B.9 Rice Green Leafhopper (Nephotettix virescens)
Rice seedlings are cleaned and washed 24 hours before spraying. The active compounds are formulated in 50:50 acetone:water (vol:vol), and 0.1% vol/vol surfactant (EL 620) is added. Potted rice seedlings are sprayed with 5 ml test solution, air dried, placed in cages and inoculated with 10 adults. Treated rice plants are kept at about 28-29° C. and relative humidity of about 50-60%. Percent mortality is recorded after 72 hours.

[3] = test system: antibodies against lysergic acid-bovine serum albumin conjugates; conditions: antibodies raised in rabbits against lysergic acid conjugates; Arens et al, Planta Medica (1980); cited from earlier work
[4] = test system: Vetch Aphid (Megoura viciae); assay: Vetch aphid leaf disk microtiter plate test; assay type: in vivo; conditions: foliar, 120 h, leaf disks sprayed, 5 days, in comparison with untreated controls
Protocol: B.7 Vetch Aphid (Megoura viciae)
For evaluating control of vetch aphid (Megoura viciae) through contact or systemic means the test unit consisted of 24-well-microtiter plates containing broad bean leaf disks.
The compounds were formulated using a solution containing 75% v/v water and 25% v/v DMSO. Different concentrations of formulated compounds were sprayed onto the leaf disks at 2.5 μl, using a custom built micro atomizer, at two replications.
After application, the leaf disks were air-dried and 5-8 adult aphids placed on the leaf disks inside the microtiter plate wells. The aphids were then allowed to suck on the treated leaf disks and incubated at about 23±1° C. and about 50±5% relative humidity for 5 days. Aphid mortality and fecundity was then visually assessed.

[5] = test system: Green Peach Aphid (Myzus persicae); assay: Green peach aphid spray test on bell pepper plants; assay type: in vivo; conditions: 120 h, after 5 days, in comparison with untreated controls
Text: B.8 Green Peach Aphid (Myzus persicae)
as §1, with “are” for “were”, “is” for “was”
Bell pepper plants at the first true-leaf stage are infested prior to treatment by placing heavily infested leaves from the main colony on top of the treatment plants. Aphids are allowed to transfer overnight to accomplish an infestation of 30-50 aphids per plant and the host leaves are removed. The infested plants are then sprayed by an automated electrostatic plant sprayer equipped with an atomizing spray nozzle. The plants are dried in the sprayer fume hood, removed, and then maintained in a growth room under fluorescent lighting in a 24-hr photoperiod at about 25° C. and about 20-40% relative humidity. Aphid mortality on the treated plants, relative to mortality on untreated control plants, is determined after 5 days.

[6] = test system: Silverleaf Whitefly (Bemisia argentifolii); assay: Silverleaf whitefly test on sprayed cotton plants; assay type: in vivo; conditions: 72 h, spray, 3 days after treatment, in comparison with untreated controls
Text: B.5 Silverleaf Whitefly (Bemisia argentifolii)
as §1, with “acetone:50%” for “acetone: 50%”, “(Kinetic( )” for “(Kinetic®)”
Cotton plants at the cotyledon stage (one plant per pot) were sprayed by an automated electrostatic plant sprayer equipped with an atomizing spray nozzle. The plants were dried in the sprayer fume hood and then removed from the sprayer. Each pot was placed into a plastic cup and about 10 to 12 whitefly adults (approximately 3-5 days old) were introduced. The insects were collected using an aspirator and a nontoxic Tygon® tubing connected to a barrier pipette tip. The tip, containing the collected insects, was then gently inserted into the soil containing the treated plant, allowing insects to crawl out of the tip to reach the foliage for feeding. Cups were covered with a reusable screened lid. […] Mortality was assessed 3 days after treatment, compared to untreated control plants.

[7] = test system: Cowpea Aphid (aphis craccivora); assay: Cowpea aphid spray test on potted cowpea plants; assay type: in vivo; conditions: assessed after 24, 72 and 120 hours, in comparison with untreated controls
Protocol: (§2) If not otherwise specified the test solutions are prepared as follow:
(§3) The active compound is dissolved at the desired concentration in a mixture of 1:1 (vol:vol) distilled water:acteon. The test solution is prepared at the day of use and in general at concentrations of […].
B.2 Cowpea Aphid (aphis craccivora)
Potted cowpea plants colonized with approximately 100-150 aphids of various stages were sprayed after the pest population has been recorded. Population reduction was assessed after 24, 72, and 120 hours.

[8] = test system: yellowfever mosquito larvae (Aedes aegypti); assay: Larval mosquito water treatment assay; conditions: 120 h
[9] = test system: Diamond Back Moth (plutella xylostella); assay: Diamond back moth leaf-dip test on Chinese cabbage; assay type: in vivo; conditions: 300 ppm, recorded 24, 72 and 120 hours after treatment, in comparison with untreated controls
Protocol: as §2, §3
B.3 Diamond Back Moth (plutella xylostella)
Leaves of Chinese cabbage were dipped in test solution and air-dried. Treated leaves were placed in petri dished lined with moist filter paper. Mortality was recorded 24, 72, and 120 hours after treatment.

[10] = test system: Striped Flea Beetle (Phylotretta striolata); assay: Striped flea beetle leaf-dip test on Chinese cabbage; assay type: in vivo; conditions: 300 ppm, 72 hours after treatment, in comparison with untreated controls
Protocol: B.10 Striped Flea Beetle (Phylotretta striolata)
The active compound is dissolved at the desired concentration in a mixture of 1:1 (vol:vol) distilled water:acetone. Add surfactant (Alkamuls® EL620) at the rate of 0.1% (vol/vol). The test solution is prepared at the day of use.
Leaves of Chinese cabbage were dipped in test solution and air-dried. Treated leaves were placed in pertri dishes lined with moist filter paper and inoculated with 20 adults. Mortality was recorded 72 hours after treatment. Feeding damage were also recorded using scale of 0-100%.

[11] = test system: Red spider Mite (Tetranychus kanzawai); assay: Red spider mite test on sprayed cowpea beans; assay type: in vivo; conditions: 300 ppm, spray, after 72 h, in comparison with untreated controls
Protocol: B.6 Red spider Mite (Tetranychus kanzawai)
The active compound was dissolved at the desired concentration in a mixture of 1:1 (v/v) distilled water:acetone. A surfactant (Alkamuls® EL 620) was added at the rate of 0.1% (v/v).
Potted cowpea beans of 7-10 days of age were cleaned with tap water and sprayed with 5 ml of the test solution using air driven hand atomizer. The treated plants were allowed to air dry and afterwards inculated with 20 or more mites by clipping a cassava leaf section with known mite population. Treated plants were placed inside a holding room at about 25-27° C. and about 50-60% relatice humidity.
ortality by counting the live mites 72 HAT. Percent mortality was assessed after 72 h.

[12] = test system: Orchid Thrips (dichromothrips corbetti); assay: Orchid thrips floral-immersion test; assay type: in vivo; conditions: 300 ppm, after 4 days, in comparison with untreated controls
Protocol: B.4 Orchid Thrips (dichromothrips corbetti)
Dichromothrips corbetti adults used for bioassay are obtained from a colony maintained continuously under laboratory conditions. For testing purposes, the test compound is diluted to a concentration of 300 ppm (wt compound: vol diluent) in a 1:1 mixture of acetone:water (vol:vol), plus 0.01% vol/vol Kinetic® surfactant.
Thrips potency of each compound is evaluated by using a floral-immersion technique. Plastic petri dishes are used as test arenas. All petals of individual, intact orchid flowers are dipped into treatment solution and allowed to dry. Treated flowers are placed into individual petri dishes along with 10-15 adult thrips. The petri dishes are then covered with lids. All test arenas are held under continuous light and a temperature of about 28° C. for duration of the assay. After 4 days, the numbers of live thrips are counted on each flower, and along inner walls of each petri dish. The level of thrips mortality is extrapolated from pre-treatment thrips numbers.

| Molecule | mortality at 300 ppm [1] | mortality at 300 ppm [2] | cross reaction activity [3] | mortality at 2500 ppm [4] | mortality at 300 ppm [5] | mortality at 300 ppm [6] | mortality at 300 ppm [7] | mortality at 10 ppm [8] | mortality [9] | mortality [10] | mortality [11] | mortality [12] |
| --- | --- | --- | --- | --- | --- | --- | --- | --- | --- | --- | --- | --- |
| CN1CC2(C)CC23c2cccc4[nH]cc(c24)CC13 (stereo not drawn) [compound 1-1, cycloclavin] | ≥ 75% | ≥ 75% | did not show cross reaction activity | ≥ 75% | ≥ 75% | ≥ 75% | ≥ 75% | ≥ 60% | – | – | – | – |
| N-methylcarbamoyl-(1aR,3aR,9bR)-1a,2,3,3a,4,6-hexahydro-1a,3-dimethyl-1H-cycloprop[c]indolo[4,3-ef]indole [compound 1-2] | – | – | – | – | – | – | – | – | at least 75% | at least 75% | at least 75% | at least 75% |
